Assays:
Type in all cases: biochemical
[1] = target: T1, human NDP kinase A (NDPK-A) variant L55H (Homo sapiens, UniProt P15531, L55H); assay: Pre-steady-state phosphotransfer, fluorescence stopped-flow
T1 construct: made in house; host or cells: E. coli

[2] = target: T2, Dictyostelium NDP Kinase N119S (Dictyostelium discoideum, UniProt P22887, N119S); assay: Pre-steady-state fluorescence stopped-flow phosphotransfer from nucleoside triphosphates, N119S Dd-NDPK; details: for times faster reaction with the N119S enzyme than wild type: from Table I; for k2/Ks N119S (catalytic efficiency of phosphotransfer): pre-steady state, stopped-flow, average of three determinations
T2 construct: made in house
T2 sequence (P22887 whole entry N119S): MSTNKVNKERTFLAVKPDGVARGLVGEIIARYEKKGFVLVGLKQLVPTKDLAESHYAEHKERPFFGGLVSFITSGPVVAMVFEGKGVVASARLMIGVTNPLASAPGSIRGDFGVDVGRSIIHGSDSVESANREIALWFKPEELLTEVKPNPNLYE
Experimental: All numbers in italics have already been published (Schneider, 1998, 2000) The kinetic constants were measured at the pre-steady-state level using a fluorescence stopped-flow device. The binding constants were determined at equilibrium by recording the increase in fluorescence (Schneider, 2000). Values are the average of three independent determinations.
As the diphosphate form of analogs were not always available, the triphosphate analogs were used to study phosphate transfer in reaction as in Scheme I. Experiments were performed with an Hi-Tech DX2 microvolume stopped-flow reaction (Schneider, 1998) at Aexc=296 nm (for Ado derivatives) or […] (for other nucleotides), 2 mm excitation slit and a 320 nm cutoff filter at the emission. After mixing NDPK (1 μM) and NTP or an analogTP (10-500 μM), the intrinsic protein fluorescence was recorded for 10-200 sec. In each experiment, 400 pairs of data were recorded, and the data from 3-4 identical experiments were averaged and fitted to a number of non-linear analytical equations using the software provided by Hi-Tech. All curves fitted to single exponentials.
(§1) The data were analyzed using the reaction scheme: [drawing 1]
In both the forward and the reverse reactions, the product concentration remains very low, thus the product binding can be neglected, and the observed single step could be attributed to the phosphotransfer (Schneider, 1998). The rate of this observed single step is: [formula]
and reaches a limiting value (k+2) at NTP saturation. Saturation could not be obtained with the concentrations of any NTP used here. Therefore, catalytic efficiencies of phosphorylation (CEphos=k+2/(k−1/k+1)=k+2/KS) were measured, which are equivalent to second order constants and allow a reliable comparison of a variety of NDP kinase substrates.

[3] = target: T3, Dictyostelium discoideum NDP kinase (Dd-NDPK), wild type (Dictyostelium discoideum, UniProt P22887); assay: Pre-steady-state phosphotransfer, fluorescence stopped-flow; details: catalytic efficiency of phosphotransfer, wt
T3 construct: made in house
T3 sequence (P22887 whole entry): as the sequence (P22887 whole entry N119S) above, with S119N counted along it

[4] = target: T4, Dictyostelium discoideum NDP kinase (Dd-NDPK) variant N119S, SEQ ID NO: 1 (Dictyostelium discoideum, UniProt P22887, N119S); assay: as above; details: for k2/Ks: catalytic efficiency of phosphotransfer, N119S, pre-steady state; for reaction with N119S relative to wild type (times faster): from k2/Ks of Table I
T4 construct: made in house
T4 sequence (P22887 whole entry N119S): as the sequence (P22887 whole entry N119S) above

[5] = target: T5, Dictyostelium NDP Kinase wt (Dictyostelium discoideum, UniProt P22887); assay: Pre-steady-state fluorescence stopped-flow phosphotransfer from nucleoside triphosphates, wild type Dd-NDPK; details: average of three determinations
T5 construct: made in house
T5 sequence (P22887 whole entry): as the sequence (P22887 whole entry N119S) above, with S119N counted along it
Experimental: The binding constants were determined at equilibrium by recording the increase in fluorescence (Schneider, 2000).
After mixing NDPK (1 μM) and NTP or an analogTP (10-500 μM), the intrinsic protein fluorescence was recorded for 10-200 sec. In each experiment, 400 pairs of data were recorded, and the data from 3-4 identical experiments were averaged and fitted to a number of non-linear analytical equations using the software provided by Hi-Tech.
as §1
The rate of this observed single step is: [formula]
and reaches a limiting value (k+2) at NTP saturation. […] Therefore, catalytic efficiencies of phosphorylation (CEphos=k+2/(k−1/k+1)=k+2/KS) were measured, which are equivalent to second order constants and allow a reliable comparison of a variety of NDP kinase substrates.

T1 sequence (P15531 whole entry L55H): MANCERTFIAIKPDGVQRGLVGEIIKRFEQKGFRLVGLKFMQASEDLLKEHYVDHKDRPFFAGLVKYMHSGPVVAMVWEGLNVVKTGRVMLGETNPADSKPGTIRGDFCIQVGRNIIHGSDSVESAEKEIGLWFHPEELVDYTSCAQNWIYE

Row | SMILES | k2/Ks ([1]; catalytic efficiency of phosphotransfer, L55H, pre-steady state) [M⁻¹ s⁻¹] | Specificity change (R) ([1]; ratio of catalytic efficiencies analog vs natural nucleotide, mutant vs wild type) | times faster reaction with the N119S enzyme than wild type [2] [times] | k2/Ks N119S (catalytic efficiency of phosphotransfer) [2] [M⁻¹ s⁻¹] | k2/Ks [3] [M⁻¹ s⁻¹] | k2/Ks [4] [M⁻¹ s⁻¹] | reaction with N119S relative to wild type (times faster) [4] [times] | k2/Ks wt (catalytic efficiency of phosphotransfer) [5] [M⁻¹ s⁻¹]
1 | Cc1cn([C@H]2C[C@H](N=[N+]=[N-])[C@@H](COP(=O)(O)OP(=O)(O)OP(=O)(O)O)O2)c(=O)[nH]c1=O [AZT-TP] | 930 | (8) | 4 | 1100 | 270 | 1100 | 4 | –
2 | Nc1nc2c(ncn2[C@H]2CC[C@@H](COP(=O)(O)OP(=O)(O)OP(=O)(O)O)O2)c(=O)[nH]1 [ddGTP, dideoxy-GTP] | – | – | 1.5 | 3500 | 2300 | 3500 | 1.5 | 2300
